Measurements taken from patent US20090131508A1, “Use of 2-Oxo-1-Pyrrolidone Derivatives for the Preparation of a Drug” (UCB PHARMA, S.A., priority 2005, published 2009).
“Also recorded” adds a separate entry of the source. Where two headings read alike, the source gives them in different places.

What was measured:
[1] = system: epilepsy; settings: A. J. Gower et al., Eur. J. Pharmacol., 222, (1992), 193-203; cited from earlier work
[2] = system: post-hypoxic myoclonus (auditory stimulus-induced myoclonic jerks); assay: rat cardiac arrest model of post-hypoxic myoclonus; type: in vivo, male Sprague-Dawley rats; settings: ip at 10, 30, 100 and 300 mg/kg, 48 hours after cardiac arrest; myoclonus score over 3 hours
Description: Brivaracetam is evaluated in a rat model of post-hypoxic myoclonus [Truong et al. (1994) Novel rat cardiac arrest model of post-hypoxic myoclonus. Mov. Disord. 9:201-206]. In this model, male Sprague-Dawley rats are subjected to mechanical-induced cardiac arrest for a short duration of time during which cerebral hypoxic insults are induced.
All surgical procedures are performed under deep anaesthesia (ketamine 85 mg/kg ip and xylazine 15 mg/kg ip). The cardiac arrest is initiated and maintained for a duration of 8 minutes by mechanically obstructing all the major cardiac blood vessels including the aorta by hooking up the vessels with an L-shaped loop inserted into the rat body cavity. […]
These animals show jerking movements in response to auditory stimuli and other features of myoclonus that are similar to those observed in human condition. […] The involuntary muscle jerks in response to each stimulus are scored as follows: 0=no jerks; 1=ear twitch; 2=ear and body jerk; 3=ear, head and shoulder jerk; 4=whole body jerk; and 5=whole body jerk with jumping.
Antimyoclonic activity of Brivaracetam, administered ip at 10, 30, 100 and 300 mg/kg, is evaluated 48 hours after the cardiac arrest. The myoclonus score is recorded at 30 min interval over a period of 3 hours after dosing, in groups of 6 rats per dose.

[3] = system: maximal electroshock seizures (MES); assay: maximal electroshock seizures (MES) in mice; type: in vivo, male NMRI mice; settings: i.p. -30 min, 95% confidence interval in parentheses
Description: (§1) The effect of Brivaracetam against maximal electroshock seizures (MES) and pentylenetetrazol (PTZ) seizures is evaluated in male NMRI mice (20-30 g; N=10 per group). MES is induced through corneal electrodes delivering a current of 50 mA for a duration 0.2 s inducing tonic hind limb extension in 100% of saline-treated animals.
(§2) PTZ is administered at a dose of 89 mg/kg s.c. which represents a dose inducing clonic convulsions of all four extremities in 97% of saline-treated animals. The mice are pre-treated with either saline or different doses of Brivaracetam (i.p. adm., −30 min.) and the proportion of mice protected against seizures is recorded.

[4] = system: pentylenetetrazol (PTZ) seizures; assay: pentylenetetrazol (PTZ) seizures in mice; type: in vivo, male NMRI mice; settings: PTZ 89 mg/kg s.c., i.p. -30 min, 95% confidence interval in parentheses
Description: as §1, §2

[5] = system: audiogenic seizures; assay: audiogenic seizures in sound-sensitive mice; type: in vivo, male genetically sound-sensitive mice; settings: i.p. -30 min, 95% confidence interval in parentheses
Description: Brivaracetam is tested in male genetically sound-sensitive mice (16-28 g; N=10 per group) responding with wild running, clonic and tonic convulsions to an acoustic stimulation. Audiogenic seizures are induced by an acoustic stimulus (90 dB, 10-20 kHz) applied for 30 s. The mice are pre-treated with either saline or different doses of Brivaracetam (i.p. adm., −30 min.) and the proportion of mice protected against both clonic and tonic convulsions is used as the end point to assess anticonvulsant activity.

[6] = system: kindled seizures; assay: amygdala kindling in rats; type: in vivo, male Sprague-Dawley rats; settings: i.p. -60 min, 95% confidence interval in parentheses
Description: The effect of brivaracetam on kindled seizures is evaluated in male Sprague-Dawley rats (250-350 g) implanted with a bipolar stimulation/recording electrode into the right basolateral amygdala [AP-2.3, L-4.8, V-8.5 (Paxinos and Watson, 1982)], under pentobarbital anaesthesia. Kindling is induced by once daily stimulation, 5 days per week, with 500 μA monophasic square wave pulses, 50 Hz for 1 s (Löscher et al., 1986). The animals are considered kindled after the appearance of at least 10 consecutive stage 4 or 5 seizures according to the scale of Racine (Racine, 1972). Fully kindled rats (N=8 per group) are stimulated once with the same stimulation parameters as above after administration of saline (i.p., −60 min).
This procedure is repeated two days later, after pre-treatment with either saline or different doses of Brivaracetam (i.p., −60 min).
The behavioural effect of stimulation is graded according to the scale of Racine and the proportion of rats protected against generalised motor seizures (stage <3) is recorded.

[7] = system: spontaneous spike-and-wave discharges (SWDs); assay: spike-and-wave discharges in Genetic Absence Epilepsy Rats from Strasbourg; type: in vivo, male rats from the Genetic Absence Epilepsy Rat Strain; settings: 95% confidence interval in parentheses
Description: Male rats from the Genetic Absence Epilepsy Rat Strain are implanted with four platinum electrodes into the left and right frontal cortex and left and right occipital cortex, under pentobarbital anaesthesia. Cortical, spontaneous spike-and-wave discharges (SWDs) are recorded bilaterally from the rats placed into Plexiglass boxes, and prevented for falling asleep by gentle sensory stimulation. After a 20-min habituation period, the rats are injected i.p. with either saline or different doses of Brivaracetam and the EEG recorded continuously over consecutive 20-min intervals up to 120 min. The cumulative duration of the SWDs is calculated.

[8] = system: DMCM-induced seizures; assay: threshold for DMCM-induced seizures in mice; type: in vivo, male NMRI mice; settings: for Clonic convulsion DMCM threshold dose / First myoclonic jerks DMCM threshold dose: mean ± S.D.
Description: The effect of Brivaracetam on the threshold for DMCM-induced seizures is evaluated in male NMRI mice (25-35 g; N=10 per group). The threshold for induction of myoclonic jerks and clonic convulsions in all four extremities is determined by infusing a concentration of 0.5 mg/ml DMCM into the tail vein of unrestrained freely moving mice at a rate of 0.25 ml/min with an infusion pump and a maximum duration of infusion of 2 min. Saline or different doses of Brivaracetam are administered 30 min before DMCM infusion.

[9] = system: photoparoxysmal EEG response (PPR); assay: photoparoxysmal EEG response (PPR) study in photosensitive epileptic subjects; type: in vivo, human (Caucasian subjects with photosensitive epilepsy); settings: for Duration of response, Median (Range) / Time to first response, Median (Range): eye-closure condition, response = SPR change of at least 3 frequency steps
Description: (§3) The aim of the placebo-controlled, single blind, multi-centre study is to explore the photoparoxysmal EEG (Electroencephalogram) response (PPR) in photosensitive epileptic subjects after one single oral dose (10, 20, 40 and 80 mg) of brivaracetam (BRV).
(§4) In the study, nineteen Caucasian subjects with photosensitive epilepsy (15 females, 4 males) with stable PPR in at least one eye condition (eyes open, eyes closed, eye closure) are enrolled. During a 3-day period, subjects underwent standardized intermittent photic stimulation (IPS) at different frequencies to define the standard photosensitivity range (SPR) in frequency steps per subject at fixed time points over the day: predose (−0.5 h) and postdose (1, 2, 4, 6, 8, 24, 28, 32, 48, and 72 h). After the placebo baseline day (day 1), single oral doses of BRV are given, starting at 80 mg, with subsequent lowering or increasing of the dose depending on the results per 4 subjects.
A total of 18 subjects are evaluable. One subject appeared to be no longer sensitive on the baseline day and is therefore not evaluable. Under placebo administration almost no SPR changes from pre-dose in “eye-closure” condition are observed. Important SPR changes or even complete abolishment of the photosensitivity windows are observed after BRV administration at all tested doses.
Descriptive statistics (N, Median (range)) for time to first response and duration of response in “eye-closure” condition are given in the Table 3 below. Response is defined as a SPR change of at least 3 frequency steps.

[10] = plasma levels of brivaracetam in the PPR study; type: in vivo; settings: human
Description: as §3, §4
Median time to first response is 0.5 hours for all doses, and median duration of response is approximately 28 hours after 10, 20, or 40 mg BRV. The median duration is longer after 80 mg BRV (59.5 h). Time to maximal reduction in SPR is dose related: 1.5, 1.0, 1.0, and 0.5 hours, respectively, for 10, 20, 40, and 80 mg BRV. Plasma levels of brivaracetam (BRV) reach a peak at approximately 2.0 hours. T1/2 is about 8.5 hours. Effect of BRV is still frequently observable with BRV plasma levels below the lower level of quantification.

[11] = 80 mg single oral dose, listed as BRV
[12] = all single doses (10, 20, 40, and 80 mg)

CC[C@H](C(N)=O)N1CCCC1=O [(R)-(+)-α-ethyl-2-oxo-1-pyrrolidine-acetamide]
Activity in the treatment of epilepsy [1]: completely devoid of activity

CCC[C@@H]1CC(=O)N([C@@H](CC)C(N)=O)C1 [Brivaracetam, (2S)-2-[(4R)-2-oxo-4-propylpyrrolidinyl]butanamide]
Antimyoclonic activity [2]: active
Protective effect ED50 value, tonic hind limb extension [3]: 113 (89-136) mg/kg i.p.
Protective effect ED50 value, clonic convulsions [4]: 30 (10-87) mg/kg i.p.
Protective effect ED50 value, clonic convulsions [5]: 2.4 (1.4-4.0) mg/kg i.p.
Protective effect ED50 value, tonic convulsions [5]: 1.4 (0.9-2.1) mg/kg i.p.
Protective effect ED50 value, secondary generalised seizures [6]: 44 (24-84) mg/kg i.p.
Protective effect ED50 value, duration of spike-and-wave discharges over 2 hours [7]: 2.6 (0.85-8.1) mg/kg i.p.
Clonic convulsion DMCM threshold, change vs control ([8]; Brivaracetam 2.1 mg/kg IP): +46%
First myoclonic jerks DMCM threshold, change vs control ([8]; Brivaracetam 2.1 mg/kg IP): +6%
Clonic convulsion DMCM threshold dose ([8]; Brivaracetam 2.1 mg/kg IP): 3.34 ± 0.93 mg/kg
First myoclonic jerks DMCM threshold dose ([8]; Brivaracetam 2.1 mg/kg IP): 1.05 ± 0.14 mg/kg
Clonic convulsion DMCM threshold, change vs control ([8]; Brivaracetam 6.8 mg/kg IP): +104%
First myoclonic jerks DMCM threshold, change vs control ([8]; Brivaracetam 6.8 mg/kg IP): +11%
Clonic convulsion DMCM threshold dose ([8]; Brivaracetam 6.8 mg/kg IP): 4.68 ± 2.21 mg/kg
First myoclonic jerks DMCM threshold dose ([8]; Brivaracetam 6.8 mg/kg IP): 1.10 ± 0.16 mg/kg
Clonic convulsion DMCM threshold, change vs control ([8]; Brivaracetam 21.2 mg/kg IP): +183%
First myoclonic jerks DMCM threshold, change vs control ([8]; Brivaracetam 21.2 mg/kg IP): +26%
Clonic convulsion DMCM threshold dose ([8]; Brivaracetam 21.2 mg/kg IP): 6.47 ± 2.82 mg/kg
First myoclonic jerks DMCM threshold dose ([8]; Brivaracetam 21.2 mg/kg IP): 1.25 ± 0.14 mg/kg
Clonic convulsion DMCM threshold, change vs control ([8]; Brivaracetam 67.9 mg/kg IP): +182%
First myoclonic jerks DMCM threshold, change vs control ([8]; Brivaracetam 67.9 mg/kg IP): +32%
Clonic convulsion DMCM threshold dose ([8]; Brivaracetam 67.9 mg/kg IP): 6.46 ± 3.16 mg/kg
First myoclonic jerks DMCM threshold dose ([8]; Brivaracetam 67.9 mg/kg IP): 1.31 ± 0.17 mg/kg
Clonic convulsion DMCM threshold, change vs control ([8]; Brivaracetam 212.3 mg/kg IP): +213%
First myoclonic jerks DMCM threshold, change vs control ([8]; Brivaracetam 212.3 mg/kg IP): +36%
Clonic convulsion DMCM threshold dose ([8]; Brivaracetam 212.3 mg/kg IP): 7.16 ± 2.98 mg/kg
First myoclonic jerks DMCM threshold dose ([8]; Brivaracetam 212.3 mg/kg IP): 1.35 ± 0.17 mg/kg
Time to maximal reduction in SPR ([9]; 10 mg single oral dose): 1.5 h
Duration of response, Median (Range) ([9]; 10 mg single oral dose): 29.3 (7.5; 31.5) h
Time to first response, Median (Range) ([9]; 10 mg single oral dose): 0.5 (0.5; 1.0) h
Patients with abolishment of EEG response ([9]; 10 mg single oral dose, reduction in the fourth patient): three out of four
Time to maximal reduction in SPR ([9]; 20 mg single oral dose): 1.0 h
Duration of response, Median (Range) ([9]; 20 mg single oral dose): 27.5 (23.0; 31.5) h
Time to first response, Median (Range) ([9]; 20 mg single oral dose): 0.5 (0.5; 1.0) h
EEG response in all (evaluable) subjects ([9]; 20 mg single oral dose, listed as BRV): abolished; also recorded: complete suppression
Time to maximal reduction in SPR ([9]; 40 mg single oral dose): 1.0 h
Duration of response, Median (Range) ([9]; 40 mg single oral dose): 27.0 (23.5; 47.5) h
Time to first response, Median (Range) ([9]; 40 mg single oral dose): 0.5 (0.5; 1.0) h
Time to maximal reduction in SPR ([9]; 80 mg single oral dose): 0.5 h
Duration of response, Median (Range) ([9]; 80 mg single oral dose): 59.5 (27.5; 71.5) h
Time to first response, Median (Range) ([9]; 80 mg single oral dose): 0.5 (0.5; 0.5) h
Duration of response, Median (Range) [9, 11]: 59.5 h
EEG response in all (evaluable) subjects [9, 11]: abolished; also recorded: complete suppression
Median duration of response ([9]; after 10, 20, or 40 mg single oral dose): approximately 28 hours
Median time to first response ([9]; all doses (10, 20, 40, 80 mg single oral dose)): 0.5 h
Safety and tolerability ([9]; all doses (10, 20, 40, 80 mg single oral dose), human subjects): safe and well tolerated
Subjects with abolished photoparoxysmal EEG response [9, 12]: 78%
Subjects with reduced photoparoxysmal EEG response [9, 12]: 94%
half-life ([10]; both sexes, plasma, single oral dose, read-out: T1/2 (converted)): ~8.5 h
half-life ([10]; in vivo, stated as basis of expected effect duration, read-out: half-life of the compound (converted)): ~7.7 h
Time of peak plasma levels ([10]; single oral dose): approximately 2.0 hours
